Data taken from US10092648B2, “Selective glucagon-like-peptide-2 (GLP-2) analogues” (Zealand Pharma A/S, priority 2006, dated 2018).

Tests used:
male C57BL mice [1] = experiment: In vivo stimulation of intestinal growth, 200 nmol/kg (Example 11); details: for Sensitivity index Si/Colon: relative to 1559
Procedure: The ability of further compounds to selectively stimulate small intestinal mass, relative to colon mass was determined in male C57BL mice. A similar protocol was used to that described above in Example 10 except that 200 nmol/kg of each compound was administered per day. Thus, individual groups (n=6-10) of mice were given 200 nmol/kg of each compound, s.c, once daily for three consecutive days. Other groups of animals were given either an equimolar dose of [[…]]GLP-2 (reference compound) or vehicle (phosphate buffered saline, pH 7.4; negative controls) in the same dosing regimen. Twenty-four hours after the last dose of compound the mice were sacrificed and the stomach, small intestine and the colon emptied and weighed.

male C57BL mice [2] = experiment: In vivo stimulation of stomach growth, 200 nmol/kg (Example 12)
Procedure: The effects of the test compounds according to the invention were determined based on the ability of the peptides to selectively increase stomach mass, relative to vehicle control. The ability of the present compounds (ZP2395, ZP2396, ZP2400, ZP2412, ZP2394 and ZP2401) to selectively stimulate stomach mass, relative to colon mass was determined in male C57BL mice. Individual groups (n=6-10) of mice were given 200 nmol/kg of each compound, s.c, once daily for three consecutive days. For comparison purposes other groups of animals were given either an equimolar dose of [[…]]GLP-2 or vehicle (phosphate buffered saline, pH 7.4) in the same dosing regimen. Twenty-four hours after the last dose of compound had been given the mice were sacrificed and the stomach and small intestine (from the pylorus to the ileocaecal junction) emptied and weighed. To correct for slight difference in body weight (BW), the organ mass of the stomach is presented relative to BW. […] To evaluate the differential growth pattern induced by ZP compounds, compared to [[…]]GLP-2, on the stomach, the stomach-colon sensitivity index of compound X was calculated as: (Stomach/Colon)x/Stomach/(Colon)[[…]]GLP-2% Compounds with a stomach/colon sensitivity greater than or equal to 1.05 were considered relatively selective for the stomach.

[3] = 200 nmol/kg s.c. once daily for 3 days
[4] = 200 nmol/kg s.c. once daily for 3 days, relative to 1559
[5] = colon weight relative to body weight, relative to ZP1559
[6] = small intestine weight relative to body weight, relative to ZP1559

| Substance | Colon-BW, compared to 1559 in % (male C57BL mice [1]; [3]) [%] | Organ selectivity (FIG. 8, unselective compounds) (male C57BL mice [1]; [3]) | SI-BW, compared to 1559 in % (male C57BL mice [1]; [3]) [%] | Sensitivity index Si/Colon (male C57BL mice [1]; [3]) | Sto-BW, compared to 1559 in % (male C57BL mice [2]; [3]) [%] | Sensitivity index Stomach/Co (male C57BL mice [2]; [4]) | Colon-BW, compared to 1559 in % (male C57BL mice [1]; [5]) [%] | SI-BW, compared to 1559 in % (male C57BL mice [1]; [6]) [%] | Preferential stimulation of epithelial growth in the stomach (summary) (male C57BL mice [2]; [3]) | Selectivity for stomach mass relative to colon mass (FIG. 7) (male C57BL mice [2]; [3]) | Sensitivity index Stomach/Co (male C57BL mice [2]; ratio Stomach-BW / Colon-BW) | Preferential stimulation of epithelial growth in the small intestine (summary) (male C57BL mice [1]; [3]) | Selectivity for small intestinal mass relative to colon mass (FIG. 6) (male C57BL mice [1]; [3]) |
| --- | --- | --- | --- | --- | --- | --- | --- | --- | --- | --- | --- | --- | --- |
| H-HGEGSFSDELKTILESLAAADFIEWLIQTKITDKKKKKK-NH2 [ZP2379] | 97 | unselective for the small intestine, colon or stomach | 88 | 0.91 | 99 | 1.02 |  |  |  |  |  |  |  |
| H-HGEGSFSDELLTILELLAAADFIAWLIATKITDKKKKKK-NH2 [ZP2412] | 99 |  | 94 | 0.95 | 106 | 1.07 | 99 | 94 | preferentially stimulating epithelial growth in the stomach | selectively increase stomach mass, relative to colon mass | 1.07 |  |  |
| H-HGEGSFSDELLTILELLAALDFIAWLIATKITDKKKKKK-NH2 [ZP2416] | 92 | unselective for the small intestine, colon or stomach | 89 | 0.97 | 96 | 1.04 |  |  |  | selectively increase stomach mass, relative to colon mass |  |  |  |
| H-HGEGSFSDELLTILELLAALDFILWLILTKITDKKKKKK-NH2 [ZP2424] | 98 | unselective for the small intestine, colon or stomach | 86 | 0.88 | 91 | 0.93 |  |  |  |  |  |  |  |
| H-HGEGSFSDELLTILELLAASDFISWLISTKITD-NH2 [ZP2400] | 106 |  | 106 | 1.00 | 111 | 1.05 | 106 | 106 | preferentially stimulating epithelial growth in the stomach | selectively increase stomach mass, relative to colon mass | 1.05 |  |  |
| H-HGEGSFSDELLTILELLAASDFISWLISTKITDKKKKKK-NH2 [ZP2394] | 96 |  | 105 | 1.09 | 109 | 1.14 | 96 | 105 | preferentially stimulating epithelial growth in the stomach | selectively increase stomach mass, relative to colon mass | 1.14 |  |  |
| H-HGEGSFSDELNTILESLAASDFISWLISTKITDKKKKKK-NH2 [ZP2382] | 106 | unselective for the small intestine, colon or stomach | 103 | 0.97 | 101 | 0.95 |  |  |  |  |  |  |  |
| H-HGEGSFSDELSTILEALAAADFIAWLIATKITD-NH2 [ZP2420] | 101 |  | 112 | 1.11 | 90 | 0.89 | 101 | 112 |  |  | 0.89 | preferentially stimulating epithelial growth in the small intestine | selectively increase small intestinal mass, relative to colon mass |
| H-HGEGSFSDELSTILEALAAADFIAWLIATKITDKKKKKK-NH2 [ZP2404] | 115 | unselective for the small intestine, colon or stomach | 114 | 0.99 | 103 | 0.90 |  |  |  |  |  |  |  |
| H-HGEGSFSDELSTILEALAASDFISWLISTKITD-NH2 [ZP2398] | 97 |  | 108 | 1.11 | 102 | 1.05 | 97 | 108 |  |  | 1.05 | preferentially stimulating epithelial growth in the small intestine | selectively increase small intestinal mass, relative to colon mass |
| H-HGEGSFSDELSTILEALAASDFISWLISTKITDKKKKKK-NH2 [ZP2385] | 95 |  | 110 | 1.16 | 93 | 0.98 | 95 | 110 |  |  | 0.98 | preferentially stimulating epithelial growth in the small intestine | selectively increase small intestinal mass, relative to colon mass |
| H-HGEGSFSDELSTILESLAAADFIAWLIATKITDKKKKKK-NH2 [ZP2403] | 109 | unselective for the small intestine, colon or stomach | 110 | 1.01 | 107 | 0.98 |  |  |  |  |  |  |  |
| H-HGEGSFSDELSTILESLAASDFISWLISTKITDKKKKKK-NH2 [ZP2380] | 102 |  | 108 | 1.06 | 98 | 0.96 | 102 | 108 |  |  | 0.96 | preferentially stimulating epithelial growth in the small intestine | selectively increase small intestinal mass, relative to colon mass |
